How the values were obtained:
NF-κB signaling pathway = test: NF-κB-dependent luciferase reporter (5×κB-luciferase/pTK-Renilla), TNF-α-induced, HeLa cells; format: cell-based; conditions: RA-V 6 h, then 10 ng/mL TNF-α 2 h, three independent experiments
Protocol: Fig. 1 RA-V inhibits TNF-α- and LPS-induced activation of NF-κB. a Chemical structure of RA-V. b RA-V inhibited the NF-κB signaling pathway in a dose-dependent manner. HEK293T or HeLa cells were transfected with the 5 × κB-luciferase and pTK-Renilla reporters. Twenty-four hours after transfection, the cells were incubated with various concentrations of RA-V for 6 h, and then treated with 10 ng/mL TNF-α for 2 h before the luciferase activity assay and MTT assay. c RA-V reduced TNF-α-induced expression of NF-κB target genes. HEK293T or HeLa cells were treated with various concentrations of RA-V for 24 h and stimulated with 10 ng/mL TNF-α for 2 h. The expression of the NF-κB target genes, IL-8, MCP-1, and E-selectin was measured by quantitative RT-PCR and normalized to GADPH expression. d RA-V inhibited TNF-α-induced p65 phosphorylation, IκBα phosphorylation and IκBα degradation. HEK293T or HeLa cells were incubated with various concentrations of RA-V for 24 h and treated with 10 ng/mL TNF-α for 10 min. The cell lysates were prepared and subjected to western blot analysis with the indicated antibodies. e RA-V inhibited TNF-α-induced IL-8 production. […] The expression of IL-6 was measured. h RA-V inhibited LPS-induced p65 phosphorylation, IκBα phosphorylation. […] The protein expression was measured. i RA-V inhibited LPS-induced IL-6 production. […] The expression of IL-6 was measured. […]

TAK1 = target: T1, TAK1 (Homo sapiens, UniProt O43318); test: Streptavidin agarose pull-down with biotin-tagged probe CB12; format: binding; conditions: lysates of HEK293T transfected with TAK1; RA-V in 10-fold excess
T1 construct: expressed in transfected cells; host or cells: HEK293T
T1 sequence (O43318 1-579 isoform O43318-2): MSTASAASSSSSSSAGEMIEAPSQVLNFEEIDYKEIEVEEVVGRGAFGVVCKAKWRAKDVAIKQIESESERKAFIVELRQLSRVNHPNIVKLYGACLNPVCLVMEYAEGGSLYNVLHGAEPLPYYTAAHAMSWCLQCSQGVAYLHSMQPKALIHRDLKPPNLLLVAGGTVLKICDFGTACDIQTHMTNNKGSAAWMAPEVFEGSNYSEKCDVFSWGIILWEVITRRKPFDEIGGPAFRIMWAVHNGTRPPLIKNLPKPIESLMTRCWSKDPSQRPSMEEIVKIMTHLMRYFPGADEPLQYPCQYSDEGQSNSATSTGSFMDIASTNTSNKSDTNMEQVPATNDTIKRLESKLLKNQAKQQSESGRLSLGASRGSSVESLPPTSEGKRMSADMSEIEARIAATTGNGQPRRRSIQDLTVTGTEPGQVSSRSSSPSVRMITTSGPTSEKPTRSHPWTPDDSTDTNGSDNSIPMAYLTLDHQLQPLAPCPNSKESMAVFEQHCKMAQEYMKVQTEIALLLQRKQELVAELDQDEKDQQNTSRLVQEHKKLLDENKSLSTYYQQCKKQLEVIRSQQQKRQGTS
Protocol: HEK293T cells were transfected with TAK1 for 24 h, then the cell lysates were incubated with biotin or CB12 followed by streptavidin agarose pull-down. […] HEK293T cells were transfected with the indicated plasmids for 24 h. The cell lysates were pulled down with streptavidin agarose and then immunoblotted with HA or Flag antibody. Each experiment was repeated at least three times
HEK293T cells were transfected with TAK1-N or TAK1-C for 24 h. The cells lysates were incubated with CB12 or biotin and precipitated with streptavidin-coated sepharose and were analyzed by immunoblotting with Flag antibody. b The model for RA-V binding to the crystal structure of the TAK1–TAB1 fusion protein (PDB 4GS6). […] HEK293T cells were transfected with TAK1 for 24 h, and then the cell lysates were incubated with biotin or CB12 before precipitation with streptavidin agarose. […] HeLa cells were incubated with various concentrations of RA-V for 12 h and then treated with 10 ng/mL TNF-α for 10 min. The cell lysates were prepared and western blotted with the indicated antibodies. Each experiment was repeated at least three times
HEK293T cells were harvested and lysed in RIPA buffer with protease inhibitors. […] The samples were separated by SDS-PAGE, and the bound proteins were detected using the indicated antibodies.

HepG2 xenograft tumors = test: HepG2 xenograft in nude mice; format: in vivo, female athymic nude BALB/c mice
Protocol: Fig. 7 RA-V inhibits tumor growth and the expression of NF-κB target genes in a nude xenograft model. a–d Inhibition of the growth of HCT116 and HepG2 xenograft tumors by RA-V. Female athymic nude BALB/c mice bearing HCT116 (n = 8) or HepG2 (n = 7) xenograft tumors were intravenously injected with various concentrations of RA-V micelles or control micelles every other day. 5-FU (10 mg/kg) group as positive control. Effects of RA-V on the growth curves of subcutaneoue xenografts of HCT116 (a) and HepG2 (b) and effects on the tumor weight in the HCT116 (c) and HepG2 (d) models. e–f Tumors removed were photographed. g–h The expression of the NF-κB target genes, IL-8, MCP-1, and CXCL-1, in HCT116 (g) and HepG2 (h) tumor tissue from vehicle- and various concentrations of RA-V-treated group was determined by quantitative RT-PCR and normalized to GADPH expression. *, p < 0.05; **, p < 0.01; ***, p < 0.001
In total, 2 × 10^6 HCT116 or 3 × 10^6 HepG2 cells were subcutaneously injected into the right dorsal flank of 6- to 8-week-old female athymic nude BALB/c mice. After tumor volumes reached 100 mm^3, the tumor-bearing mice were randomly divided into several groups. The mice bearing HCT116 (n = 8) or HepG2 xenograft tumors (n = 7) were received the intravenous injection of vehicle micelles or various concentrations of RA-V micelles every other day. 5-FU (10 mg/kg) group as positive control. Body weights and tumor volumes were recorded every other day. Tumor volumes were calculated using the following formula: tumor volume (mm^3) = 0.52 × length × width^2. At the end of the experiments, the mice were killed. Tumor xenografts of each mouse were removed and weighed. Part of each tumor tissue was stored at liquid nitrogen for quantitative RT-PCR analysis. […] Serum alanine transaminase(ALT), aspartate transaminase(AST), and creatine kinase(CK) were determined using relevant kits (Nanjing Jiancheng) according to the manufacturer’s specific instructions.

[1] = HepG2, n = 7, RA-V micelles i.v. every other day, vs control

RA-V
IC50 (NF-κB signaling pathway): 171 nM
competition with the CB12–TAK1 interaction (pull-down) (TAK1): competed away
tumor growth rate (tumor volume) (HepG2 xenograft tumors; [1]): significantly reduced
tumor weight (HepG2 xenograft tumors; [1]): obviously lower
expression of IL-8, MCP-1, and CXCL-1 in tumor tissue (HepG2 xenograft tumors; HepG2 xenograft, quantitative RT-PCR): remarkable decreased
